Test results from PubChem BioAssay (NCI).
“And” between values parts separate entries of the source, which are not always exact repeats. Equal entries are not always repeated.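 Assay format: 96-well plates, 48-hour exposure. GI50: concentration for 50% inhibition of growth. TGI: concentration producing complete growth inhibition.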

Assays:
Assay in all cases: growth of human tumour cells (NCI), 48 h
RPMI-8226 leukemia = test system: RPMI-8226 leukemia
MOLT-4 leukemia = test system: MOLT-4 leukemia
OVCAR-8 ovarian = test system: OVCAR-8 ovarian
UACC-257 melanoma = test system: UACC-257 melanoma
HCT-116 colon = test system: HCT-116 colon
SW-620 colon = test system: SW-620 colon
IGROV1 ovarian = test system: IGROV1 ovarian
SK-OV-3 ovarian = test system: SK-OV-3 ovarian
SF-268 CNS = test system: SF-268 CNS
SK-MEL-28 melanoma = test system: SK-MEL-28 melanoma

SMILES | GI50 (RPMI-8226 leukemia) | TGI (RPMI-8226 leukemia) | GI50 (MOLT-4 leukemia) | TGI (MOLT-4 leukemia) | GI50 (OVCAR-8 ovarian) | TGI (OVCAR-8 ovarian) | GI50 (UACC-257 melanoma) | TGI (UACC-257 melanoma) | GI50 (HCT-116 colon) | TGI (HCT-116 colon) | GI50 (SW-620 colon) | TGI (SW-620 colon) | GI50 (IGROV1 ovarian) | TGI (IGROV1 ovarian) | GI50 (SK-OV-3 ovarian) | TGI (SK-OV-3 ovarian) [µM] | GI50 (SF-268 CNS) [µM] | TGI (SF-268 CNS) [µM] | GI50 (SK-MEL-28 melanoma) | TGI (SK-MEL-28 melanoma)
Cc1c2c(nn1C)CSCc1cc(n(C)n1)CSc1cc(c3ccccc3c1)OCCCc1c(C(=O)O)n(C)c3c-2c(Cl)ccc13 | 0.0401 µM | 1.33 µM | 0.448 µM | 4.4 µM | 4.62 µM | 18.9 µM | 4.16 µM | 16 µM | 3.53 µM | 13 µM | 4.26 µM | 16 µM | 3.99 µM | 14.5 µM | 10.6 µM | 22.7 | 4.42 | 16.3 | 3.61 µM | 12.9 µM
C/C(CC(=O)Nc1ccc(Cl)cc1)=N\NC(N)=S |  | > 100 µM |  | > 100 µM |  | > 100 µM |  | > 100 µM |  | > 100 µM |  | > 100 µM |  | > 100 µM |  | > 100 |  | > 100 |  | > 100 µM
Cc1ccc(N2C(=O)C3C=CC(n4[nH]c(=O)n(Cc5ccccc5)c4=O)CC3C2=O)cc1 (centres undefined) |  | > 100 µM |  | > 100 µM |  | > 100 µM |  | > 100 µM |  | > 100 µM |  | > 100 µM |  | > 100 µM |  | > 100 |  | > 100 |  | > 100 µM
C=C1C(=O)OC2C1C(OC(=O)/C(C)=C/C)CC(O)(CCl)C1C(O)C3OC3(C)C21O (centres undefined) |  | > 50 µM |  | > 50 µM |  | 42.5 µM |  | > 50 µM |  | 23.7 µM |  | 34.1 µM |  | > 50 µM |  | > 50 |  | > 50 |  | > 50 µM
CCOC(=O)NC(=O)c1cn(CCCCCCOC(=O)NCCCCCCNC(=O)OCCCCCCn2cc(C(=O)NC(=O)OCC)c(=O)[nH]c2=O)c(=O)[nH]c1=O |  | > 100 µM |  | > 100 µM |  | > 100 µM |  | > 100 µM |  | > 100 µM |  | > 100 µM |  | > 100 µM |  | > 100 |  | > 100 |  | > 100 µM
CCOc1cc2ncc(C#N)c(Nc3ccc(OCc4ccccn4)c(Cl)c3)c2cc1NC(=O)/C=C/CN(C)C | 1.11 µM and 0.695 µM | 4.38 µM and 3.79 µM | 0.672 µM and 0.463 µM | 20.3 µM and > 5.61 µM | 0.28 µM and 0.339 µM | 1.65 µM and > 4.46 µM | 1.41 µM and > 4.55 µM | 4.27 µM and > 10 µM | 0.568 µM and 0.615 µM | 2.08 µM and 2.05 µM | 0.638 µM and 0.53 µM | 2.41 µM and 3.02 µM | 0.121 µM and 0.0191 µM | 5.7 µM and 1.84 µM | < 0.01 µM and 0.00218 µM |  | 0.563 | > 10 | 1.41 µM and 2.36 µM | 2.96 µM and > 10 µM
Cn1cc(C2=C(c3cccc(OCC(O)CO)c3)C(=O)NC2=O)c2ccccc21 (centres undefined) | > 25 µM | > 25 µM | > 25 µM | > 25 µM | > 25 µM | > 25 µM | > 25 µM | > 25 µM | > 25 µM | > 25 µM | > 25 µM | > 25 µM | > 25 µM | > 25 µM | > 25 µM | > 25 | > 25 | > 25 | > 25 µM | > 25 µM
Cc1cccc(C(C)C)c1NC(=O)CC1C(=O)Nc2ccccc2S1(=O)=O (centres undefined) |  | 23 µM |  | 10.2 µM |  | > 59 µM |  | > 70.8 µM |  | > 46.9 µM |  | 30.4 µM |  | > 51 µM |  | > 100 |  | 29.5 |  | > 56 µM
COc1cc(/C=C2\Sc3scc(-c4cccc([N+](=O)[O-])c4)[n+]3C2=O)cc(OC)c1OC |  | 22.7 µM |  | 11.8 µM |  | > 100 µM |  | 25.2 µM |  | 26.4 µM |  | 23 µM |  | 29.4 µM |  | 59.9 |  | 42.1 |  | 34.8 µM
COc1cc(C(=O)NC2CCN(C)CC2)c(F)cc1Nc1ncc2c(n1)N(C1CCCC1)CC(F)(F)C(=O)N2C | < 0.022 µM | 3.26 µM | 0.0171 µM | 2.53 µM | 0.0338 µM | 18.7 µM | 1.25 µM | 10.9 µM | < 0.0142 µM | 12 µM | < 0.01 µM | 11.5 µM | < 0.0217 µM | 14.5 µM | < 0.0132 µM | 1.02 | < 0.025 | 12.1 | < 0.0209 µM | 16.2 µM
COc1ccc(/C=C2\CCCC3=C2NC(N)=NC3c2ccc(OC)c(OC)c2)cc1OC (centres undefined) | 0.837 µM | 15.4 µM | 4.04 µM | > 100 µM | 2.08 µM | > 100 µM | 5 µM | > 81.1 µM | 1.28 µM | 8.64 µM | 4.58 µM | > 50.3 µM | 28.9 µM | > 100 µM | 13.4 µM | > 100 | 6.9 | > 100 | 21.6 µM | > 100 µM
CC1=C(CO)C(=O)O[C@@H]([C@@H](C)[C@H]2CC[C@H]3[C@@H]4C[C@@H](O)[C@@]5(O)CC=CC(=O)[C@]5(C)[C@H]4CC[C@]23C)C1 |  | 92.2 µM |  | > 100 µM |  | > 100 µM |  | > 100 µM |  | 55.5 µM |  | 47.4 µM |  | 31.6 µM |  | > 100 |  | > 100 |  | > 100 µM
COc1ccc(/C=N/N=C(\N)NO)c(OC)c1 |  | > 100 µM |  | > 100 µM |  | > 100 µM |  | > 100 µM |  | > 100 µM |  | > 100 µM |  | > 100 µM |  | > 100 |  | > 100 |  | > 100 µM
O=C(c1ccccc1)c1cccc(C(=O)c2ccccc2)c1 |  | > 100 µM |  | > 100 µM |  | > 100 µM |  | > 100 µM |  | > 100 µM |  | > 100 µM |  | > 100 µM |  | > 100 |  | > 100 |  | > 100 µM
CC1(C)[C@@H](OC(N)=O)[C@H]2O[C@H]2[C@]2(CO)[C@H]3CC[C@]4(C)[C@@H](c5ccc(=O)oc5)[C@@H](Cl)C[C@]4(O)C3=CC[C@@H]12 | < 0.011 µM | 0.126 µM | 0.00519 µM | 0.0144 µM | 0.00863 µM | 0.0297 µM | 0.012 µM | 0.045 µM | 0.00709 µM | 0.0262 µM | 0.00835 µM | 0.0279 µM | 0.0116 µM | 0.0938 µM | 0.00661 µM | 0.018 | 0.00457 | 0.00892 | 0.016 µM | 0.0902 µM
CCOC(=O)NC(=O)c1cn(CCN2CCN(c3ncnc4nc[nH]c34)CC2)c(=O)[nH]c1=O |  | > 100 µM |  | > 100 µM |  | > 100 µM |  | > 100 µM |  | > 100 µM |  | > 100 µM |  | > 100 µM |  | > 100 |  | > 100 |  | > 100 µM
C=C1C(=O)OC2/C=C(/C)C(OC(C)=O)CC(O)/C(C)=C\C(OC(=O)/C(C)=C\C)C12 (centres undefined) |  | > 100 µM |  | > 100 µM |  | > 100 µM |  | > 100 µM |  | 35.6 µM |  | 67.6 µM |  | > 100 µM |  | > 100 |  | > 100 |  | > 100 µM
CC1(C)C2C=CC1(C)C1(CC2)OCCO1 (centres undefined) |  | > 100 µM |  | > 100 µM |  | > 100 µM |  | > 100 µM |  | > 100 µM |  | > 100 µM |  | > 100 µM |  | > 100 |  | > 100 |  | > 100 µM
O=C1c2ccccc2-c2c1c1ccccc1c(=O)n2CCN1CCOCC1 | 39 µM | > 100 µM | 14.7 µM | 38.6 µM | 60.6 µM | > 100 µM | > 100 µM | > 100 µM | 36 µM | > 100 µM | 87.6 µM | > 100 µM | 79.4 µM | > 100 µM | > 100 µM | > 100 | > 100 | > 100 | > 100 µM | > 100 µM
COc1ccc(OC)c(-c2c(C#N)c(N)nc(N3CCOCC3)c2C#N)c1 | > 100 µM | > 100 µM | > 100 µM | > 100 µM | 79.1 µM | > 100 µM | 39.4 µM | > 100 µM | > 100 µM | > 100 µM | > 100 µM | > 100 µM | 73.9 µM | > 100 µM | 11.9 µM | > 100 | > 100 | > 100 | 82.8 µM | > 100 µM
CCOc1ccccc1N=Nc1c(C)[nH]n(-c2nc(-c3ccccc3)cs2)c1=O | > 100 µM | > 100 µM | > 100 µM | > 100 µM | 29 µM | > 100 µM | 52.5 µM | > 100 µM | 52.3 µM | > 100 µM | > 100 µM | > 100 µM | 25.8 µM | > 85.3 µM | 38.9 µM | > 100 | 35.4 | > 100 | > 84.9 µM | > 100 µM
Cc1cc(Cl)ccc1NC(=O)CC/C(CC(=O)C(C)C)=N\NC(=O)C[n+]1ccccc1 |  | > 100 µM |  | > 100 µM |  | > 100 µM |  | > 100 µM |  | > 100 µM |  | > 100 µM |  | > 100 µM |  | > 100 |  | > 100 |  | > 100 µM
C[CH2][Sn]([CH2]C)([O]C(=O)C(OC(C)=O)c1ccccc1)[O]C(=O)C(OC(C)=O)c1ccccc1 (centres undefined) | 11.2 µM | 36.9 µM | 17.2 µM | 60.9 µM | > 100 µM | > 100 µM | 16.7 µM | 33.4 µM | 92.6 µM | > 100 µM | 16.3 µM | 36.8 µM | > 100 µM | > 100 µM | > 100 µM | > 100 | 16.6 | 31.8 | 18.3 µM | 40.9 µM
